Values quoted from earlier work as cited in article PMC4912218, “Targeted metabolomics of Gammarus pulex following controlled exposures to selected pharmaceuticals in water” (The Science of the Total Environment, 2016).

System: Thamnocephalus platyurus
Conditions: ref Kim et al., 2009; cited from earlier work

SMILES: Oc1cc(Cl)ccc1Oc1ccc(Cl)cc1Cl [Triclosan]
- 24 h- LC50 T. platyurus: 0.47 µg/mL
